# From article PMC5071857, “A unique peptide deformylase platform to rationally design and challenge novel active compounds” (Scientific Reports, 2016)
# Where two headings read alike, the source gives them in different places.
# What was measured:
# E. faecalis EFA 103.214 = experiment: MIC, E. faecalis EFA 103.214; assay type: cell-based; settings: Enterococcus faecalis, EFA103.214, read-out: MIC E. faecalis EFA 103.214
# Source text: (§1) Two E. coli strains, one B. subtilis strain, one S. aureus strain, one E. faecalis strain, one S. agalactiae strain and three Enterobacter aerogenes strains previously described were used. Briefly, AG100 was an E. coli wild type strain and AG100A its acrAB^- derivative. EA289 was a Kan^s derivative of an E. aerogenes multi-drug resistant (MDR) clinical isolate overexpressing AcrAB-TolC efflux pumps, and EA294 and EA298 its acrAB^- and tolC^- derivatives respectively. Strains were routinely grown at 37 °C on Luria-Bertani (LB) agar or in Mueller-Hinton II broth (MH), supplemented with kanamycine (50 μg.mL^−1) for AG100A, EA294 and EA298.
# (§2) MIC values of antibiotics were determined by the microdilution method in liquid MH media in microplates in the absence or presence of chemosensitizers/modulators (e.g. PMBN, PAβN), as previously described. Permeabilization, blocking of efflux pumps, and isolates with different levels of porin or efflux expression were used to assess the involvement of the membrane barrier in antibiotic activity.
# (§3) Susceptibilities were determined in 96-wells microplates with an inoculum of 2 × 10^5 cfu in 200 μL of MH broth containing two-fold serial dilutions of each antibiotics or compounds. Molecules were tested alone or in combination with other molecules in equimolar ratio. MICs were realized in the absence and in the presence of a membrane permeabilizer, the polymyxine B nonapeptide (PMBN) used at 51.2 mg/L (1/5 or 1/10 of its direct MIC previously determined). Actinonin and ciprofloxacin were used as internal antibiotic reference. […] Each test was systematically performed in triplicate. The average of three independent assays is presented in μg/mL in the respective tables.
# S. aureus SA113 = experiment: MIC, S. aureus SA113; assay type: cell-based; settings: Staphylococcus aureus
# Source text: as §1, §2, §3
# B. subtilis 168 = experiment: MIC, B. subtilis 168; assay type: cell-based; settings: Bacillus subtilis
# Source text: as §1, §2, §3
# EcPDF = target: T1, EcPDF (Escherichia coli, UniProt P0A6K3); experiment: PDF inhibition, formate dehydrogenase-coupled spectrophotometric assay (EcPDF); assay type: biochemical; settings: for EcPDF KI/KI*app: enhancement potency (slow tight-binding)
# T1 construct: made in house
# Description: (§4) The formate released by the deformylation reaction is used by FDH to convert NAD in NADH, the production of which being measured over time at 340 nm and controlled temperature (37 °C). The 200 μL reaction mixture contained 50 mM HEPES-NaOH pH7.5, 12 mM NAD^+, 4.5 U/mL FDH, 1 mM NiCl2 and PDF enzyme (either 40 nM SaPDF or 10 nM EcPDF or 100 nM AtPDF1B) previously diluted in presence of 0.1 mg/mL BSA. The reaction was started by addition of 1–6 mM Fo-Met-Ala-Ser. Kinetics parameters (kcat, Km) were derived from iterative non-linear least square fits using the Michaelis-menten equation based on the experimental data (Sigma-Plot, Kinetics module).
# (§5) 1/KI*app is the slope of the v0/vi curve in function of compound concentration, where v0 and vi are the initial reaction rates in absence and presence of compound, respectively.
# (§6) Determination of KI values was performed with a slightly modified protocol: reaction was started by addition of enzyme instead of Fo-Met-Ala-Ser, the latter being directly added to the mixture containing increasing concentrations of each compound. No pre-incubation of enzyme in presence of compound was done. 1/KI is the slope of the v0/vi curve in function of compound concentration, where v0 and vi are the initial reaction rates in absence and presence of compound respectively.
# E. coli AG100 = experiment: MIC by microdilution, E. coli AG100; assay type: cell-based; settings: 18 h at 37 °C, average of three assays; for MIC: Escherichia coli, AG100, without PMBN; for MIC AG100: with PMBN at 1/5 of its MIC
# Source text: as §1, §2, §3
# [1] = system: E. coli AG100A (AcrAB- derivative); experiment: MIC by microdilution, E. coli AG100A; assay type: cell-based; settings: for MIC: Escherichia coli, 18 h, read-out: MIC AG100A; for MIC AG100A: with PMBN at 1/5 of its MIC, 18 h at 37 °C, average of three assays
# Source text: as §1, §2, §3
# SaPDF [2] = target: T2, SaPDF (Streptococcus agalactiae serotype III, UniProt Q8E378, S2A); experiment: biochemical; settings: for Ki: SaPDF KI, no pre-incubation, assay initiated by addition of enzyme, 40 nM SaPDF, 37 °C
# T2 construct: the recombinant protein contains all residues of the 204 amino acids mature protein; made in house; host or cells: E. coli Rosetta 2(DE3)pLysS
# Description: as §4, with “Enzymatic activity was measured by a spectrophotometric assay where peptide deformylase activity is coupled to that of formate dehydrogenase. The formate” for “The formate”
# as §5, §6
# SaPDF [3] = target: T2, SaPDF; experiment: biochemical; settings: SaPDF KI*app, PDFI pre-incubated with enzyme 10 min at 37 °C, started by 2 mM Fo-Met-Ala-Ser; 40 nM SaPDF
# AtPDF1B [4] = target: T3, AtPDF1B (Arabidopsis thaliana, UniProt Q9FUZ2); experiment: PDF inhibition, formate dehydrogenase-coupled spectrophotometric assay (AtPDF1B); assay type: biochemical; settings: for IC50 / Ki: 100 nM AtPDF1B; for IC50: 2 mM Fo-Met-Ala-Ser, 10 min pre-incubation at 37 °C; for Ki: PDFI pre-incubated with enzyme 10 min at 37 °C, started by 2 mM Fo-Met-Ala-Ser, read-out: AtPDF1B KI*app; for AtPDF1B KI/KI*app: enhancement potency (slow tight-binding)
# T3 construct: made in house
# T3 sequence (Q9FUZ2 83-273): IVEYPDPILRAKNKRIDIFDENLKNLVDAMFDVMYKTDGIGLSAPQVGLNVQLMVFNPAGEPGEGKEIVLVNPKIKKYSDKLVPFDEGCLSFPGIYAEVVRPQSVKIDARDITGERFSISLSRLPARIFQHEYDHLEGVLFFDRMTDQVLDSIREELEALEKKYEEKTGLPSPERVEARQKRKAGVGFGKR
# Description: as §4, with “Enzymatic activity was measured by a spectrophotometric assay where peptide deformylase activity is coupled to that of formate dehydrogenase. The formate” for “The formate”
# as §5, §6
# [5] = system: E. aerogenes Ea294, Ea289 derivative AcrAB-; experiment: MIC by microdilution, E. aerogenes Ea294; assay type: cell-based, Enterobacter aerogenes; settings: for MIC Ea294: +PMBN at 1/5 of its MIC, average of three assays; for MIC: Klebsiella aerogenes, 18 h, read-out: MIC Ea294
# Source text: as §1, §2, §3
# [6] = system: E. aerogenes Ea289, MDR strain; experiment: MIC by microdilution, E. aerogenes Ea289; assay type: cell-based, Enterobacter aerogenes; settings: for MIC Ea289: +PMBN at 1/5 of its MIC, average of three assays; for MIC: Klebsiella aerogenes, 18 h, read-out: MIC Ea289
# Source text: as §1, §2, §3
# [7] = system: E. aerogenes Ea298, Ea289 derivative tolC-; experiment: MIC by microdilution, E. aerogenes Ea298; assay type: cell-based, Enterobacter aerogenes; settings: Klebsiella aerogenes, 18 h, read-out: MIC Ea298
# Source text: as §1, §2, §3
# AtPDF1B [8] = target: T3, AtPDF1B; experiment: PDF inhibition, formate dehydrogenase-coupled spectrophotometric assay (AtPDF1B); assay type: biochemical; settings: no pre-incubation, assay initiated by addition of enzyme; 100 nM AtPDF1B; 37 °C
# [9] = 10 nM EcPDF, 2 mM Fo-Met-Ala-Ser, 10 min pre-incubation at 37 °C, read-out: IC50 EcPDF
# [10] = EcPDF KI*app, PDFI pre-incubated with enzyme 10 min at 37 °C, started by 2 mM Fo-Met-Ala-Ser, 10 nM EcPDF
# [11] = EcPDF KI, no pre-incubation, assay initiated by addition of enzyme, 10 nM EcPDF, 37 °C
# T2 sequence (Q8E378 whole entry S2A): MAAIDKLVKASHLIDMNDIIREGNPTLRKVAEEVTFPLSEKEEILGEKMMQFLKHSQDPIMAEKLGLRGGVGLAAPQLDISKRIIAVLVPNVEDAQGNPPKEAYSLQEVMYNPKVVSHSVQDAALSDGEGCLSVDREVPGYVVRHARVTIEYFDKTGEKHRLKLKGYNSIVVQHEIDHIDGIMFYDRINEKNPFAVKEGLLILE
# T1 sequence (P0A6K3 whole entry): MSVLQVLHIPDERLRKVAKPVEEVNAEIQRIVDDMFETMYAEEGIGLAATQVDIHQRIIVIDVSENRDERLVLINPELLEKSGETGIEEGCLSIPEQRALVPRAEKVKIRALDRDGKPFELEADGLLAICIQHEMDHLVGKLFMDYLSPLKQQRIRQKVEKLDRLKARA
SMILES,MIC (E. faecalis EFA 103.214) [µg/mL],MIC (S. aureus SA113) [µg/mL],MIC (B. subtilis 168) [µg/mL],IC50 (EcPDF; [9]) [nM],MIC (E. coli AG100) [µg/mL],MIC AG100 (E. coli AG100) [µg/mL],MIC [1] [µg/mL],MIC AG100A [1] [µg/mL],IC50 (SaPDF [2]) [nM],Ki (SaPDF [2]) [nM],IC50 (EcPDF) [nM],Ki (EcPDF; [10]) [nM],Ki (EcPDF; [11]) [nM],EcPDF KI/KI*app (EcPDF),Ki (SaPDF [3]) [nM],IC50 (AtPDF1B [4]) [nM],Ki (AtPDF1B [4]) [nM],AtPDF1B KI/KI*app (AtPDF1B [4]),MIC Ea294 [5] [µg/mL],MIC [5] [µg/mL],further results
CCCC[C@H](CC(=O)NO)c1nc(C(=O)N[C@H](C(N)=O)C(C)C)co1 [AT010],> 64,> 64,> 64,420,> 64,>64,> 64,>64,,,,,,,,,,,,,
O=C(C[C@@H](CC1CCCC1)c1nc(Cc2coc3ccccc23)no1)NO [AT019],,,,,> 64,2,16,0.5,7 ± 1,65 ± 6,6 ± 1,1.1 ± 0.3,76 ± 4,69,7.5 ± 2,77 ± 5,54 ± 2,5,2,128,MIC Ea289 [6]: 16 µg/mL; MIC [6]: > 128 µg/mL; MIC [7]: 64 µg/mL; Ki (AtPDF1B [8]): 263 ± 26 nM
CCCCC(CC(=O)NO)c1nc(C(N)=O)co1 (stereo not shown) [AT007],> 64,> 64,> 64,740,> 64,>64,> 64,>64,,,,,,,,,,,,,
O=C(C[C@@H](CC1CCCC1)c1nc(Cc2ccc3c(c2)OCO3)no1)NO [AT020],,,,,> 64,8,16,4,12 ± 3,63 ± 3,7 ± 2,1.9 ± 0.2,80 ± 3,42,8.5 ± 3,119 ± 10,123 ± 5,2,8,128,MIC Ea289 [6]: 32 µg/mL; MIC [6]: > 128 µg/mL; MIC [7]: 128 µg/mL; Ki (AtPDF1B [8]): 238 ± 30 nM
CCCC[C@H](CC(=O)NO)c1nc(C(=O)N[C@H](C(=O)OC)C(C)C)co1 [AT009],> 64,> 64,> 64,330,> 64,>64,> 64,>64,,,,,,,,,,,,,
